Test results taken from patent US20130004477A1, “Methods for Treating Inflammation and Oxidative Stress Related Diseases” (priority 2009, published 2013).
Where two headings read alike, the source gives them in different places.

How the values were obtained:
[1] = system: healthy volunteers; details: Phase 1 single-dose; cited from earlier work
[2] = non-enzymatic reaction; cited from earlier work
[3] = system: CF mice
Experimental: Mouse pups, weaned at day ˜28, had access to drinking water and solid mouse food. […] All pictures were taken at the same magnification (20× objective). […] In panels C and F, the green, yellow and black arrows point to a villus, a goblet cell and a mucus plug, respectively.
The body length (A) and weight (B) (mean±s.e.m.) of CF and heterozygous mice were determined 30, 60, and 90 days after weaning
FIGS. 7B-G, show standard Alcian Blue-stained (5 μm-thick) sections of large (FIG. 7B-D) and small (FIG. 7E-G) intestines (Alcian Blue specifically stains mucin; http://www.protocol-online.org).
Mouse pups, weaned at day ˜28, had access to drinking water and solid mouse food. […] In FIGS. 7C and 7F, the green, yellow and black arrows point to a villus, a goblet cell and a mucus plug, respectively.
The body length (A) and weight (B) (mean±s.e.m.) of CF and heterozygous mice were determined 30, 60, and 90 days after.

[4] = system: Calu-3 cells; assay: Cell viability assay: H2O2 cytotoxicity in Calu-3 cells; type: cell-based, human; details: SCN^− alone, GO 20 mU/ml
Experimental: (§1) (the number of independent trials is indicated in parentheses).
(§2) Four types of cell, Calu-3, Min6 (58), Neuro-2A, and HAEC (Invitrogen Inc.) were plated in 48-well culture plates (3.5×10^4 to 2×10^5 per well). Twenty-four to forty-eight hours later, cells were washed with Earl's balanced salt solution (EBSS) before subsequent studies. EBSS contained: NaCl (116 mM), glucose (5.5 mM), KCl (5.4 mM), CaCl2 (1.8 mM), MgSO4 (2.2 mM), NaH2PO4 (1 mM), and NaHCO3 (26 mM); pH 7.0. […] LPO (1 U/ml) and NaSCN (100 or 400 μM) were added to protect cells from injuries caused by H2O2. For the MPO studies, cells were first incubated for one hour in EBSS containing MPO (1 U/ml). The MPO reaction was initiated by adding 10 mU/ml GO to generate H2O2, and cells were maintained in a 37° C. incubator (5% CO2) for three additional hours. […] After incubation, cells were trypsinized, pelleted, and resuspended in a phosphate buffer solution (PBS), which contains NaCl (137 mM), KCl (2.7 mM), Na2HPO4 (4.3 mM) and KH2PO4 (1.4 mM); pH 7.3. Non-viable cells were identified by staining with 0.2% Trypan blue (Invitrogen, Inc.). Both stained and unstained cells were counted with a hemocytometer in double blind experiments.

[5] = system: CF piglets
[6] = biological target: MPO (Homo sapiens, UniProt P05164); details: 1 U/ml MPO, 100 mM Cl^−, 5 minutes
Experimental: Reaction mixtures contained MPO (1 U/ml), NaCl (100 mM), NaSCN (0-400 μM), and sodium phosphate (100 mM, pH 7.0). Reactions were initiated by adding 50 μM H2O2 to the mixture, and stopped 5 minutes later by adding 1 μM catalase to decompose remaining H2O2 to H2O and O2. Blank reactions contained no H2O2. The concentrations of OCl^− and OSCN^−were determined using the taurine chloramine assay. OCl^− and OSCN^− react with taurine to form taurine chloramine. The latter oxidizes yellow 5-thio-2-nitrobenzoic acid (ε412=14,100 M^−1 cm^−1) to colorless 5,5′-dithiobis-2-nitrobenzoic acid. The drop in absorbance at 412 nm (after subtracting the blank) reflects the total concentration of OCl^− plus OSCN^− produced. […] Methionine was added immediately after the addition of catalase but 5 minutes before the taurine chloramine assay. This five minute interval allowed methionine to reduce OCl^−. Unless specified otherwise, all reagents were purchased from Sigma-Aldrich.

[7] = system: Neuro-2A cells; details: GO 10 mU/ml, MPO 1 U/ml
Experimental: as §1, §2

[8] = system: human aortic endothelial cells (HAEC); details: 400 μM SCN^−; GO 5 mU/ml, MPO 1 U/ml
Experimental: as §1, §2

[9] = system: Min6 cells; details: 400 μM SCN^−; GO 10 mU/ml, MPO 1 U/ml
Experimental: as §1, §2

[10] = biological target: T1, CFTR (Homo sapiens, UniProt P13569, G551D); details: CF patients with at least one copy of the G551D mutation; Phase II; cited from earlier work
T1 construct: endogenous in cells; host or cells: CF patients (nasal epithelium, sweat glands, lungs)

[11] = system: CF patients; details: high doses; cited from earlier work
[12] = 1 mM thiocyanate in drinking water, 30, 60, 90 days after weaning
[13] = single dose of thiocyanate (1 mM)

Sequence of MPO (P05164 49-745, species assumed): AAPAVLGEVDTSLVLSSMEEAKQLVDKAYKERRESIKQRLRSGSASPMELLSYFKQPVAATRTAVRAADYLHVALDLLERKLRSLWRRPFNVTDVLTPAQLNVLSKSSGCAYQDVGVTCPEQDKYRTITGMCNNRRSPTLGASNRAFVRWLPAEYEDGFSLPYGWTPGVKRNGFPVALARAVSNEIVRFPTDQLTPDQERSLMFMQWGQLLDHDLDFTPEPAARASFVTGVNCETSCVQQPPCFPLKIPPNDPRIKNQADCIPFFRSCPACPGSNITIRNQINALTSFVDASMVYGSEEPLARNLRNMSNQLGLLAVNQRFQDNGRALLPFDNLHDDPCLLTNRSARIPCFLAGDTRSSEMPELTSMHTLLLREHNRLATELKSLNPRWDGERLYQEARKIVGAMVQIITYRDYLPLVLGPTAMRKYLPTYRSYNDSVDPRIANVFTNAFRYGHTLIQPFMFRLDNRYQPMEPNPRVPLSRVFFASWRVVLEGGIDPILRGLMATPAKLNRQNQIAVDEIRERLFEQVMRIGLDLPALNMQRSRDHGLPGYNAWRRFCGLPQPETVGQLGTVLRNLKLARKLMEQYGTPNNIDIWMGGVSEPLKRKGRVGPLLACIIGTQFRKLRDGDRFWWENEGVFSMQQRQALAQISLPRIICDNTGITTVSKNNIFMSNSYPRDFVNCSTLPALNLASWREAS
T1 sequence (P13569 whole entry G551D): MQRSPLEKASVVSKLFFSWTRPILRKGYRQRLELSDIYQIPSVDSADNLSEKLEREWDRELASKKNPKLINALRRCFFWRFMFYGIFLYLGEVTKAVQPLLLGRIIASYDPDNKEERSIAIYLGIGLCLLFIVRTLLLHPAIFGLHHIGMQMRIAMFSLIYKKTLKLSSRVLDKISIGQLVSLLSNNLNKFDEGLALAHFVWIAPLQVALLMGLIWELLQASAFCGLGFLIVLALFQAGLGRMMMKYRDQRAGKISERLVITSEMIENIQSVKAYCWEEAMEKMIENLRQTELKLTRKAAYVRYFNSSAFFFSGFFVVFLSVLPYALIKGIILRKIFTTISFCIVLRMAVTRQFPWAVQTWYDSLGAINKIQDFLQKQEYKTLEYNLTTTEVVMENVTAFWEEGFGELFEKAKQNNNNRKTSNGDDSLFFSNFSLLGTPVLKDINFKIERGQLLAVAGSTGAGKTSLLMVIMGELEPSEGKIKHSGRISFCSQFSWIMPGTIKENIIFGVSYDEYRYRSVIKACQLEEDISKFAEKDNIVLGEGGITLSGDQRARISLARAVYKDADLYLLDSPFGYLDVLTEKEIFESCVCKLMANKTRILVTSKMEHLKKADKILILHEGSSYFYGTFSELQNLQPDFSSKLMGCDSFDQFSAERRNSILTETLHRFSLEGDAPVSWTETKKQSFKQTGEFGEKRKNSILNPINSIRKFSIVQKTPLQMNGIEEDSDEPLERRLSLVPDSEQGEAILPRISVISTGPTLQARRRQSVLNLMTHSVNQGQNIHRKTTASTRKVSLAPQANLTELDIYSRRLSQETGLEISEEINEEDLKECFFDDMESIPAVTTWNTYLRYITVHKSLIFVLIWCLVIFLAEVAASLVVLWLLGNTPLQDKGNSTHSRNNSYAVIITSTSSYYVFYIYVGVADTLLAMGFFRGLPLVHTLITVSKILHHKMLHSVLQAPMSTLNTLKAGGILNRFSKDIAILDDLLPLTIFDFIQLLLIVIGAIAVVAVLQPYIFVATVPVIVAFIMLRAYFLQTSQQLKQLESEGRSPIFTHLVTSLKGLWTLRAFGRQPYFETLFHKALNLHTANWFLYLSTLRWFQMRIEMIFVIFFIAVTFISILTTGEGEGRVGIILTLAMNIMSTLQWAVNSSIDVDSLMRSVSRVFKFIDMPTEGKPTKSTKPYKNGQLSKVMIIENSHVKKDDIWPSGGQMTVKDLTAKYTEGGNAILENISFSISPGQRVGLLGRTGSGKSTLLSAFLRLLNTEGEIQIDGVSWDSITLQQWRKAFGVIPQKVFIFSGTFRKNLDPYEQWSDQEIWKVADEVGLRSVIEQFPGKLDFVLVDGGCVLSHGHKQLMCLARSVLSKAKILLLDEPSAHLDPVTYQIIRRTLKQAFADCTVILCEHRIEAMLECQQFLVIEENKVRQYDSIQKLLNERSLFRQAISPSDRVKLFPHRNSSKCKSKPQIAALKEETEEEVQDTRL

Compound: O=C(O)c1cccc(-c2noc(-c3ccccc3F)n2)c1 [Ataluren]
- safety, oral availability and tolerability [1]: safe, orally available and well tolerated

Compound: N#CS [SCN^−, thiocyanate]
- second-order rate constant of oxidation by OCl^− to OSCN^− [2]: 2.3e+07 M⁻¹ s⁻¹
- CF mice survived beyond 90 days ([3]; 1 mM thiocyanate in drinking water (mothers before weaning, pups after weaning)): 10 of the 15
- body length of CF mice [3, 12]: normalizes
- body weight of CF mice [3, 12]: normalizes
- survival of CF mice ([3]; oral thiocyanate, 1 mM in drinking water): prolongs the survival
- protection against H2O2 cell injury ([4]; 100 μM): Neither SCN^− (100 or 400 μM), nor LPO (1 U/ml) alone provided any significant protection
- protection against H2O2 cell injury ([4]; 400 μM): Neither SCN^− (100 or 400 μM), nor LPO (1 U/ml) alone provided any significant protection
- protection for CF piglets ([5]; given to pig mothers during pregnancy and to piglets after birth, up to 20 mg/kg daily, with or without iodine): improved protection
- effect on meconium in CF piglets [5, 13]: loosening meconium
- survival of CF piglets [5, 13]: does not survive them
- inhibition of MPO-catalyzed production of OCl^− ([6]; 10 μM SCN^−): inhibited only slightly, if at all
- inhibition of MPO-catalyzed production of OCl^− ([6]; 50 μM SCN^−): partially inhibited
- production of OSCN^− and OCl^− with increasing SCN^− concentration [6]: boosted the production of OSCN^− but depressed that of OCl^−
- inhibition of MPO-catalyzed production of OCl^− ([6]; 100-400 μM SCN^−): inhibited almost completely
- protection against MPO activity ([7]; 100 μM SCN^−): virtually fully protected
- protection against MPO activity ([7]; 400 μM SCN^−): virtually fully protected
- protection against MPO activity [8]: virtually fully protected
- protection against MPO activity [9]: virtually fully protected

Compound: CC(C)(C)c1cc(C(C)(C)C)c(NC(=O)c2c[nH]c3ccccc3c2=O)cc1O [VX-770]
- biological measures of CFTR function (nasal potential difference and sweat chloride) [10]: improvements
- clinical measures of pulmonary health (FEV1) [10]: improvements

Compound: CC(C)Cc1ccc(C(C)C(=O)O)cc1 (stereo not shown) [ibuprofen]
- CF disease progression [11]: slow disease progression
